What was measured:
[1] = Stability of P11 in human GI microsomes; assay type: in vitro ADME; details: Figure 3A
[2] = Full pharmacokinetic evaluation of P11 in EL4 tumor-bearing mice (intact prodrug and released DON); assay type: in vivo, C57BL/6/CES1–/– mice; details: P11 2.9 mg/kg SC, analyte intact P11
Method: C57BL/6/CES1^–/– mice were obtained as a gift from the United States Army Medical Research Institute of Chemical Defense, Maryland, USA; breeding was performed in the Johns Hopkins animal facility and was conducted according to protocols reviewed and approved by the Johns Hopkins Institutional Animal Care and Use Committee in compliance with the Association for Assessment and Accreditation of Laboratory Animal Care International (AAALAC) and the Public Health Service Policy on the Humane Care and Use of Laboratory Animals (PHS Policy). Male and female C57BL/6 mice (weighing between 25 and 30 g) 6–8 weeks of age were used for the study. The animals were maintained on a 12 h light–dark cycle with ad libitum access to food (certified laboratory food: Teklad 18% Protein Extruded Rodent Diet) and water. EL4 mouse lymphoma cells were obtained as a gift from the laboratory of Dr. Jonathan Powell (Johns Hopkins University, Baltimore, MD) and maintained in RPMI 1640 medium 1X (Corning, cat. no. 10-040-CV) with 10% (v/v) fetal bovine serum (Corning, cat. no. 35-011-CV), 1% (v/v) antimycotic/antibiotic (Corning, cat. no. 30-004-CI), 2 mM L-glutamine (Corning, cat. no. 25-005-CI), and 10 mM HEPES (Corning, cat. no. 25-060-CI) in a 5% (v/v) CO2 and 95% (v/v) air incubator prior to subcutaneous (SC) injection (1 × 10^6 cells in 0.2 mL of phosphate-buffered saline) on the flank of each mouse.
Pharmacokinetic study was performed after tumors grew to a mean volume of around 400 mm^3. […]
Plasma concentration levels of P11 were measured by precipitating 20 μL of plasma sample with 100 μL of methanol containing internal standard (losartan, 0.5 μM), followed by vortex mixing for 30 s and then centrifugation at 16000g for 5 min at 4 °C. […]
Chromatographic analysis was performed on an Agilent ultra-high-performance LC system coupled with an Agilent 6520 QTOF mass spectrometer (Agilent, Santa Clara, CA). […] P11 concentrations were determined by the AUC of high-resolution extracted chromatograms of P11 divided by internal standard (460.2554 m/z/423.1695 m/z). […]

CN(C)CC(=O)N[C@@H](Cc1ccccc1)C(=O)N[C@@H](CCC(=O)C=[N+]=[N-])C(=O)OC(C)(C)C [Prodrug P11, tert-Butyl (S)-6-Diazo-2-((S)-2-(2-(dimethylamino)acetamido)-3-phenylpropanamido)-5-oxohexanoate]
stability in human GI microsomes [1]: confirmed
intestinal tissue levels of intact prodrug (below the limit of quantification) ([2]; intestinal tissue): < 0.01 nmol/mL
AUC of intact prodrug, tumor ([2]; tumor): 0.092 nmol·h/g
AUC at 6 h ([2]; both sexes, C57BL/6/CES1–/–, mouse, plasma): 0.15 µM·h

— article PMC10683027, “Discovery of tert-Butyl Ester Based 6-Diazo-5-oxo-L-norleucine Prodrugs for Enhanced Metabolic Stability and Tumor Delivery” (Journal of Medicinal Chemistry, 2023)
